The values that follow are results of earlier work, collected in patent publication US20230310471A1, “METHODS, DEVICES, AND SYSTEMS FOR TREATING LENS PROTEIN AGGREGATION DISEASES” (priority 2022, published 2023).

This series deals with vimentin. The settings on record: background statement, no experimental details printed.

Turning to `O=S(=O)(F)Cc1ccccc1` [PMSF, phenylmethylsulfonyl fluoride], the vimentin degradation result was “decrease vimentin degradation”.
With `CC(=O)N[C@@H](CC(C)C)C(=O)N[C@@H](CC(C)C)C(=O)N[C@H](C=O)CCCNC(=N)N` [leupeptin], the vimentin degradation entry is “decrease vimentin degradation”.
